# Laboratory results reported in publication PMC12613848, “First in human phase 1 study of DT2216, a selective BCL-xL degrader, in patients with relapsed/refractory solid malignancies” (Journal of Hematology & Oncology, 2025).
# “Also recorded” adds a separate entry of the source. Like-named read-outs stand apart in the source and are kept apart here.
# Experiment: Plasma pharmacokinetics of DT2216 in patients, phase 1 dose escalation
# Assay type: in vivo, human
# Conditions: for ArAUC0−24 (accumulation ratio) / Vd / clearance / half-life / AUC(0-t) / AUC(0-inf) / Cmax / Tmax: plasma; for Vd / clearance / half-life / AUC(0-t) / AUC(0-inf) / Cmax / Tmax: human; for AUC(0-inf): read-out: AUC0−∞; for Cmax: read-out: Cmax; for Tmax: median (min, max)
# Experimental: Dose escalation consisted of the administration of DT2216 intravenously twice weekly at several different doses outlined in protocol attached. The starting dose was 0.04 mg/kg, established based on pre-clinical toxicity studies. Safety was evaluated using CTCAE version 5.0. The initial three dose levels enrolled one patient, following which for dose level 4 and 5, a 3 + 3 design was utilized following a 100% incremental dose increase for dose levels 2 to 5 until the first dose limiting toxicity (DLT) in cycle 1 was observed. Thereafter, a modified Fibonacci sequence was used to define dose escalation increments until the maximum tolerated dose (MTD) was reached as described in protocol. If no dose-limiting toxicity (DLT) was observed during the DLT monitoring period of first 28 days, the next patient was enrolled at the next higher dose level. Dose-limiting toxicities (DLTs) during the first treatment cycle were defined as any Grade 5 toxicity; Grade 4 neutropenia lasting > 7 days; febrile neutropenia; Grade 4 thrombocytopenia or Grade 3 thrombocytopenia with clinically significant hemorrhage or lasting ≥ 7 days; and Grade ≥ 3 non-hematologic toxicities, excluding nausea, vomiting, or diarrhea lasting ≤ 3 days or transient laboratory abnormalities resolving within 72 h. Hepatotoxicity meeting Hy’s law criteria was also considered a DLT. Transient Grade 3–4 electrolyte abnormalities resolving to ≤ Grade 2 within 72 h were not considered DLTs.
# Patients were allowed a maximum of two intra-patient dose escalations. Patients received DT2216 by intravenous infusion on days 1 and 4 weekly for at least 4 weeks, with each cycle consisting of a 28-day cycle for a maximum duration of 1 year until disease progression, unacceptable toxicity, or other withdrawal criteria, as listed in the protocol. The extent of disease was evaluated using imaging studies and disease-appropriate tumor markers every 8 weeks from day 1 of the first cycle. RP2D was established based on MTD as well as other relevant data, including clinical signals of activity, PK, and PD data.
# Premedication prior to each infusion was at the discretion of the investigator or according to institutional guidelines. Patient assessment and follow-up procedures can be found in the schedule of assessments in this study. The clinical response was evaluated using RECIST v1.1 per protocol. Blood samples were collected for PK analysis before and after post-infusion at defined intervals, along with platelet counts. Exploratory biomarkers include (but are not limited to) the assessment of BCL-XL and VHL levels in peripheral white blood cells (WBC).
# Throughout the course of the dose escalation trial, only one dose-limiting toxicity was observed, with grade 4 thrombocytopenia at a dose level of 0.32 mg/kg. […] The pharmacokinetic parameters of DT2216 were determined in patients following doses on Cycle 1 Day 1 and Cycle 1 Day 22 (Tables 4 and 5). […] AUC0-∞ values ranged from 8650 to 72,300 ng · h/mL over the dose range of 0.04 mg/kg 0.4 mg/kg. […] The volume of distribution at steady state (Vss) was small (< 100 mL/kg) and consistent across the dose groups. Following repeated dosing, accumulation of DT2216 in plasma was not observed with twice weekly dosing, with accumulation ratio values ranging from 0.74 to 1.07 on Cycle 1 Day 22 ([…]) across the dose groups.
# [1] = iv, 0.04 mg/kg, Cycle 1 Day 1, 0.04 mg/kg IV, mean (CV%), N = 1
# [2] = iv, 0.04 mg/kg, Cycle 1 Day 22, 0.04 mg/kg IV BIW, mean (CV%), N = 1
# [3] = iv, 0.08 mg/kg, Cycle 1 Day 1, 0.08 mg/kg IV, mean (CV%), N = 1
# [4] = iv, 0.08 mg/kg, Cycle 1 Day 22, 0.08 mg/kg IV BIW, mean (CV%), N = 1
# [5] = iv, 0.12 mg/kg, Cycle 1 Day 1, 0.12 mg/kg IV, mean (CV%), N = 1
smiles,measurement,setting,value
Cc1ncsc1-c1ccc([C@H](C)NC(=O)[C@@H]2C[C@@H](O)CN2C(=O)[C@@H](NC(=O)CCCCCC(=O)N2CCN(CC[C@H](CSc3ccccc3)Nc3ccc(S(=O)(=O)NC(=O)c4ccc(N5CCN(CC6=C(c7ccc(Cl)cc7)CCC(C)(C)C6)CC5)cc4)cc3S(=O)(=O)C(F)(F)F)CC2)C(C)(C)C)cc1 [DT2216],dose proportionality of plasma exposure (AUC),0.04 to 0.4 mg/kg IV BIW,dose proportional with no dose accumulation; also recorded: dose proportional increase in DT2216 exposure
same,maximum concentration,0.4 BIW dose,8590 ng/mL
same,ArAUC0−24 (accumulation ratio),"Cycle 1 Day 22, 0.04 mg/kg IV BIW, mean (CV%), N = 1",0.90 (N = 1)
same,ArAUC0−24 (accumulation ratio),"Cycle 1 Day 22, 0.08 mg/kg IV BIW, mean (CV%), N = 1",0.74 (N = 1)
same,ArAUC0−24 (accumulation ratio),"Cycle 1 Day 22, 0.12 mg/kg IV BIW, mean (CV%), N = 1",1.07 (N = 1)
same,ArAUC0−24 (accumulation ratio),"Cycle 1 Day 22, 0.24 mg/kg IV BIW, mean (CV%), N = 6",1.08 (11.6) (N = 6)
same,ArAUC0−24 (accumulation ratio),"Cycle 1 Day 22, 0.32 mg/kg IV BIW, mean (CV%), N = 5",1.02 (6.7) (N = 5)
same,ArAUC0−24 (accumulation ratio),"Cycle 1 Day 22, 0.4 mg/kg IV BIW, mean (CV%), N = 4",1.01 (8.7) (N = 4)
same,steady state of plasma concentration,based on pre-dose and 2-hour post infusion plasma concentrations,"reached by at least Cycle 1, Day 15"
same,Vd,"intravenous, consistent across the dose groups, read-out: volume of distribution at steady state (Vss)",< 0.1 L/kg
same,clearance,"intravenous, over the dose range tested, read-out: clearance values",0.0683 to 0.132 mL/min/kg
same,half-life,"intravenous, over the dose range tested, independent of dose, read-out: mean half-life",7.09 to 12.8 h
same,AUC(0-t),"iv, 0.04 mg/kg, Cycle 1 Day 1, 0.04 mg/kg IV, mean (CV%), N = 1, read-out: AUC0−24",5.92 µg·h/mL
same,AUC(0-inf),[1],8.65 µg·h/mL
same,AUC(0-t),"iv, 0.04 mg/kg, Cycle 1 Day 1, 0.04 mg/kg IV, mean (CV%), N = 1, read-out: AUClast",8.47 µg·h/mL
same,clearance,"iv, 0.04 mg/kg, Cycle 1 Day 1, 0.04 mg/kg IV, mean (CV%), N = 1, read-out: CL (converted)",0.077 mL/min/kg
same,Cmax,[1],0.738 µg/mL
same,half-life,"iv, 0.04 mg/kg, Cycle 1 Day 1, 0.04 mg/kg IV, mean (CV%), N = 1, read-out: T½ (converted)",12.8 h
same,Vd,"iv, 0.04 mg/kg, Cycle 1 Day 1, 0.04 mg/kg IV, mean (CV%), N = 1, read-out: Vdss",0.0776 L/kg
same,Tmax,"iv, 0.04 mg/kg, Cycle 1 Day 1, 0.04 mg/kg IV, N = 1",0.75 h
same,AUC(0-t),"iv, 0.04 mg/kg, Cycle 1 Day 22, 0.04 mg/kg IV BIW, mean (CV%), N = 1, read-out: AUC0−24",5.35 µg·h/mL
same,AUC(0-inf),[2],6.23 µg·h/mL
same,AUC(0-t),"iv, 0.04 mg/kg, Cycle 1 Day 22, 0.04 mg/kg IV BIW, mean (CV%), N = 1, read-out: AUClast",5.39 µg·h/mL
same,clearance,"iv, 0.04 mg/kg, Cycle 1 Day 22, 0.04 mg/kg IV BIW, mean (CV%), N = 1, read-out: CL (converted)",0.107 mL/min/kg
same,Cmax,[2],0.541 µg/mL
same,half-life,"iv, 0.04 mg/kg, Cycle 1 Day 22, 0.04 mg/kg IV BIW, mean (CV%), N = 1, read-out: T½ (converted)",8.18 h
same,Vd,"iv, 0.04 mg/kg, Cycle 1 Day 22, 0.04 mg/kg IV BIW, mean (CV%), N = 1, read-out: Vdss",0.081 L/kg
same,Tmax,"iv, 0.04 mg/kg, Cycle 1 Day 22, 0.04 mg/kg IV BIW, N = 1",2.5 h
same,AUC(0-t),"iv, 0.08 mg/kg, Cycle 1 Day 1, 0.08 mg/kg IV, mean (CV%), N = 1, read-out: AUC0−24",13.4 µg·h/mL
same,AUC(0-inf),[3],19.5 µg·h/mL
same,AUC(0-t),"iv, 0.08 mg/kg, Cycle 1 Day 1, 0.08 mg/kg IV, mean (CV%), N = 1, read-out: AUClast",19.1 µg·h/mL
same,clearance,"iv, 0.08 mg/kg, Cycle 1 Day 1, 0.08 mg/kg IV, mean (CV%), N = 1, read-out: CL (converted)",0.0683 mL/min/kg
same,Cmax,[3],1.45 µg/mL
same,half-life,"iv, 0.08 mg/kg, Cycle 1 Day 1, 0.08 mg/kg IV, mean (CV%), N = 1, read-out: T½ (converted)",12.5 h
same,Vd,"iv, 0.08 mg/kg, Cycle 1 Day 1, 0.08 mg/kg IV, mean (CV%), N = 1, read-out: Vdss",0.07 L/kg
same,Tmax,"iv, 0.08 mg/kg, Cycle 1 Day 1, 0.08 mg/kg IV, N = 1",1.5 h
same,AUC(0-t),"iv, 0.08 mg/kg, Cycle 1 Day 22, 0.08 mg/kg IV BIW, mean (CV%), N = 1, read-out: AUC0−24",9.84 µg·h/mL
same,AUC(0-inf),[4],11.7 µg·h/mL
same,AUC(0-t),"iv, 0.08 mg/kg, Cycle 1 Day 22, 0.08 mg/kg IV BIW, mean (CV%), N = 1, read-out: AUClast",9.91 µg·h/mL
same,clearance,"iv, 0.08 mg/kg, Cycle 1 Day 22, 0.08 mg/kg IV BIW, mean (CV%), N = 1, read-out: CL (converted)",0.114 mL/min/kg
same,Cmax,[4],0.962 µg/mL
same,half-life,"iv, 0.08 mg/kg, Cycle 1 Day 22, 0.08 mg/kg IV BIW, mean (CV%), N = 1, read-out: T½ (converted)",8.63 h
same,Vd,"iv, 0.08 mg/kg, Cycle 1 Day 22, 0.08 mg/kg IV BIW, mean (CV%), N = 1, read-out: Vdss",0.091 L/kg
same,Tmax,"iv, 0.08 mg/kg, Cycle 1 Day 22, 0.08 mg/kg IV BIW, N = 1",2.5 h
same,AUC(0-t),"iv, 0.12 mg/kg, Cycle 1 Day 1, 0.12 mg/kg IV, mean (CV%), N = 1, read-out: AUC0−24",12.9 µg·h/mL
same,AUC(0-inf),[5],18 µg·h/mL
same,AUC(0-t),"iv, 0.12 mg/kg, Cycle 1 Day 1, 0.12 mg/kg IV, mean (CV%), N = 1, read-out: AUClast",17.9 µg·h/mL
same,clearance,"iv, 0.12 mg/kg, Cycle 1 Day 1, 0.12 mg/kg IV, mean (CV%), N = 1, read-out: CL (converted)",0.111 mL/min/kg
same,Cmax,[5],3.71 µg/mL
same,half-life,"iv, 0.12 mg/kg, Cycle 1 Day 1, 0.12 mg/kg IV, mean (CV%), N = 1, read-out: T½ (converted)",8.92 h
same,Vd,"iv, 0.12 mg/kg, Cycle 1 Day 1, 0.12 mg/kg IV, mean (CV%), N = 1, read-out: Vdss",0.0557 L/kg
same,Tmax,"iv, 0.12 mg/kg, Cycle 1 Day 1, 0.12 mg/kg IV, N = 1",0.75 h
same,AUC(0-t),"iv, 0.12 mg/kg, Cycle 1 Day 22, 0.12 mg/kg IV BIW, mean (CV%), N = 1, read-out: AUC0−24",13.9 µg·h/mL
same,AUC(0-inf),"iv, 0.12 mg/kg, Cycle 1 Day 22, 0.12 mg/kg IV BIW, mean (CV%), N = 1",14.5 µg·h/mL
same,AUC(0-t),"iv, 0.12 mg/kg, Cycle 1 Day 22, 0.12 mg/kg IV BIW, mean (CV%), N = 1, read-out: AUClast",13.9 µg·h/mL
